Results from publication PMC8881610 (Nature Communications, 2022).
Read-outs that look alike come from different tables or passages of the source. Where a SMILES comes first, the peptide text is derived from it. [ ]: non-standard residue; d: D form. Aib = CC(C)(N)C(=O)O

Legend:
GIPR = biological target: T1, GIPR (Homo sapiens, UniProt P48546); assay: β-arrestin 2 recruitment (BRET); format: cell-based; set-up: expressed in transfected cells; host or cells: HEK293T; settings: GIPR WT, HEK293T; for Emax: HEK-293T
T1 sequence (P48546 22-466): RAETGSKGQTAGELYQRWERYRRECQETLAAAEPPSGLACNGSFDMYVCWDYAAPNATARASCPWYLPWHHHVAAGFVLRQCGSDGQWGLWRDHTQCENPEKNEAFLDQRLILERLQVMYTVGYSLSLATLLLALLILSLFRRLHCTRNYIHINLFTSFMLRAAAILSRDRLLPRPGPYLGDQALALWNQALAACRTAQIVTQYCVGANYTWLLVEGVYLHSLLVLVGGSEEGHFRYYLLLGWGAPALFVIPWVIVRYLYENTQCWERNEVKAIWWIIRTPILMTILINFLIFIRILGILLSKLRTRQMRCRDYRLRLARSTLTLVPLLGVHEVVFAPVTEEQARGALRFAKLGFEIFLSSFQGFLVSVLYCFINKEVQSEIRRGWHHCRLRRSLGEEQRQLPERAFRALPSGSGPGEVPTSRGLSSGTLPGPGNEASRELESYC
Procedure: After cells were grown for 24 h, transiently transfected cells were then seeded onto poly-D-lysine coated 96-well culture plates (50,000 cells/well) in DMEM with 10% FBS. Cells were grown for 20 h before incubation in assay buffer (HBSS supplemented with 10 mM HEPES, 0.1% BSA or 0.1% casein, pH 7.4) for 30 min at 37 °C. Coelentrazine-h (Yeasen Biotech) was added to a final concentration of 5 μM for 5 min before bioluminescence resonance energy transfer (BRET) readings were made using an EnVision plate reader (PerkinElmer). BRET baseline measurements were collected for 15 cycles prior to ligand addition. After which, BRET was measured for 55 cycles.

GCGR = GCGR (Homo sapiens, UniProt P47871); assay: cAMP accumulation assay, GCGR WT, mutant or modified constructs; format: cell-based; set-up: V5 (C); 6×His (C); expressed in transfected cells; host or cells: HEK293T; settings: for EC50 / Emax: HEK293T; for Emax: HEK-293T
Procedure: Human embryonic kidney 293 cells containing SV40 large T-antigen (HEK293T) were cultured in DMEM (Gibco) supplemented with 10% (v/v) fetal bovine serum (FBS, Gibco), 1 mM sodium pyruvate (Gibco) and 100 units/mL penicillin and 100 μg/mL streptomycin at 37 °C in 5% CO2. Chinese hamster ovary (CHO-K1) cells were cultured in F-12 (Gibco) containing 10% FBS, 100 units/mL penicillin and 100 μg/mL streptomycin at 37 °C in 5% CO2. For cAMP and receptor expression assays, HEK293T cells were seeded into 6-well cell culture plates at a density of 7 × 10^5 cells per well. After overnight incubation, cells were transfected with GIPR, GLP-1R or GCGR construct using Lipofectamine 2000 or Lipofectamine 3000 transfection reagent (Invitrogen). For whole-cell binding assay, CHO-K1 cells were seeded into 96-well fibronectin-treated cell culture plates at a density of 3 × 10^4 cells per well. After overnight incubation, cells were transfected with GIPR, GLP-1R or GCGR construct using Lipofectamine 2000 transfection reagent (Invitrogen). Following 24 h culturing, the transfected cells were ready for use. […]
For GIPR, GLP-1R and GCGR, multi-targeting agonist stimulated cAMP accumulation was measured by a LANCE Ultra cAMP kit (PerkinElmer). After 24 h culture, the transfected cells were seeded into 384-well microtiter plates at a density of 3,000 cells per well in HBSS supplemented with 5 mM HEPES, 0.1% (w/v) BSA or 0.1% (w/v) casein and 0.5 mM 3-isobutyl-1-methylxanthine. The cells were stimulated with different concentrations of peptide agonists for 40 min at RT. Eu-cAMP tracer and ULight^TM-anti-cAMP were then diluted by cAMP detection buffer and added to the plates separately to terminate the reaction. Plates were incubated at RT for 1 h and the fluorescence intensity measured at 620 nm and […] by an EnVision multilabel plate reader (PerkinElmer).

GLP-1R [1] = biological target: GLP-1R (Homo sapiens, UniProt P43220, Y148A); assay: Whole-cell binding assay, competition with 125I-GLP-1(7-36)NH2; set-up: Flag; expressed in transfected cells; settings: GLP-1R Y148A, CHO-K1
Procedure: (§1) Human embryonic kidney 293 cells containing SV40 large T-antigen (HEK293T) were cultured in DMEM (Gibco) supplemented with 10% (v/v) fetal bovine serum (FBS, Gibco), 1 mM sodium pyruvate (Gibco) and 100 units/mL penicillin and 100 μg/mL streptomycin at 37 °C in 5% CO2. Chinese hamster ovary (CHO-K1) cells were cultured in F-12 (Gibco) containing 10% FBS, 100 units/mL penicillin and 100 μg/mL streptomycin at 37 °C in 5% CO2. For cAMP and receptor expression assays, HEK293T cells were seeded into 6-well cell culture plates at a density of 7 × 10^5 cells per well. After overnight incubation, cells were transfected with GIPR, GLP-1R or GCGR construct using Lipofectamine 2000 or Lipofectamine 3000 transfection reagent (Invitrogen). For whole-cell binding assay, CHO-K1 cells were seeded into 96-well fibronectin-treated cell culture plates at a density of 3 × 10^4 cells per well. After overnight incubation, cells were transfected with GIPR, GLP-1R or GCGR construct using Lipofectamine 2000 transfection reagent (Invitrogen). Following 24 h culturing, the transfected cells were ready for use.
(§2) For GLP-1R and GCGR, CHO-K1 cells (30,000 cells/well) were seeded into Isoplate-96 plates and incubated for 24 h at 37 °C in 5% CO2. The WT or mutant constructs were transiently transfected using Lipofectamine 2000 transfection reagent as previous described. They were then washed twice using F-12 with 0.1% BSA or 0.1% casein, 33 mM HEPES, and incubated for 2 h at 37 °C. […] Cells were washed three times with ice-cold PBS and lysed in PBS with 1% Triton X-100, 20 mM Tris-HCl. After addition of scintillation cocktail (PerkinElmer), radioactivity (CPM) was counted on a MicroBeta^2 microplate counter (PerkinElmer). Data were normalized to the WT response and analyzed using three-parameter logistic equation.

GLP-1R [2] = biological target: GLP-1R (Homo sapiens, UniProt P43220, W214A); assay: as above; set-up: Flag; expressed in transfected cells; settings: GLP-1R W214A, CHO-K1
Procedure: as §1, §2

[3] = GCGR WT, 0.1% BSA, read-out: cAMP accumulation Emax
[4] = GCGR WT, 0.1% casein, read-out: cAMP accumulation Emax
[5] = read-out: binding pIC50 (converted)

GCGR, sequence (P47871 26-477): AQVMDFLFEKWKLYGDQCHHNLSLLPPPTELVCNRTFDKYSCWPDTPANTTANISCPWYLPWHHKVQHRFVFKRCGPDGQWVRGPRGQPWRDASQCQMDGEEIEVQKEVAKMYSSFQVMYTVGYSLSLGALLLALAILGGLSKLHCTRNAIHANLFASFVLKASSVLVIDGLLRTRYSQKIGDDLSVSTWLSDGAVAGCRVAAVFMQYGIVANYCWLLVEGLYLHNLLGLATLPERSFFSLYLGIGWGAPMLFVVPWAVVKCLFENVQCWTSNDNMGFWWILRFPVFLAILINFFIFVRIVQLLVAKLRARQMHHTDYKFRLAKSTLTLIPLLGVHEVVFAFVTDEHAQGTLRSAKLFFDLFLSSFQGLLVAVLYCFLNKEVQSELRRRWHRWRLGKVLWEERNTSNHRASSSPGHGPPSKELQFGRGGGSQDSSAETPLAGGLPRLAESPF
GLP-1R (Homo sapiens, UniProt P43220, Y148A), sequence (P43220 24-463 Y148A): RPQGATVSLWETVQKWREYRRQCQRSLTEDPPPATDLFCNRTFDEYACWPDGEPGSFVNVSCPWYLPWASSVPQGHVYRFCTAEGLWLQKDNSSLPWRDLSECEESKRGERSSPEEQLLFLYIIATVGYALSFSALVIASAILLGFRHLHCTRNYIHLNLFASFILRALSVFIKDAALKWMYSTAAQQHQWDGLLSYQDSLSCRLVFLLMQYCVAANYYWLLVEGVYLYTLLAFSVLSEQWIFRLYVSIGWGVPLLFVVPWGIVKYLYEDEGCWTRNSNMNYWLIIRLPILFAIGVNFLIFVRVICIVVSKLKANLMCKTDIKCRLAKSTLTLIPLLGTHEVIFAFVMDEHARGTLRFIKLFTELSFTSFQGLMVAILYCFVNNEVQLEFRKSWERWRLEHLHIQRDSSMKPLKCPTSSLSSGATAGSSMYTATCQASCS
GLP-1R (Homo sapiens, UniProt P43220, W214A), sequence (P43220 24-463 W214A): as the sequence (P43220 24-463 Y148A) above, with A125Y, W191A counted along it

Row | SMILES | EC50 (GIPR; 0.1% casein, read-out: β-arrestin 2 recruitment pEC50 (converted)) | Emax (GIPR; 0.1% BSA) | Emax (GIPR; 0.1% casein) | EC50 (GCGR; GCGR WT, 0.1% BSA, read-out: cAMP accumulation pEC50 (converted)) | reduction of cAMP accumulation vs peptide 20 (GCGR; GCGR, 0.1% BSA) | EC50 for cAMP accumulation relative to peptide 20 (GCGR; GCGR, 0.1% casein) | Emax (GCGR; [3]) | Emax (GCGR; [4]) | EC50 (GCGR; GCGR WT, read-out: cAMP pEC50 (converted)) | EC50 (GCGR; GCGR, n = 4, SEM, read-out: cAMP pEC50 ± S.E.M. (converted)) | Emax (GCGR; GCGR WT, read-out: cAMP Emax) | Emax (GCGR; GCGR, n = 4, SEM, read-out: cAMP Emax ± S.E.M.) | binding Span (GLP-1R [1]) | IC50 (GLP-1R [1]; [5]) | binding Span (GLP-1R [2]) | IC50 (GLP-1R [2]; [5])
1 | CC[C@H](C)[C@H](NC(=O)[C@H](CC(C)C)NC(=O)[C@H](Cc1c[nH]c2ccccc12)NC(=O)[C@H](CCC(N)=O)NC(=O)[C@@H](NC(=O)[C@H](Cc1ccccc1)NC(=O)[C@H](C)NC(=O)[C@H](CCCCN)NC(=O)[C@H](CCC(N)=O)NC(=O)[C@H](C)NC(=O)[C@@H](NC(=O)[C@H](CCCCN)NC(=O)[C@H](CC(=O)O)NC(=O)[C@H](CC(C)C)NC(=O)C(C)(C)NC(=O)[C@@H](NC(=O)[C@H](CO)NC(=O)[C@H](Cc1ccc(O)cc1)NC(=O)[C@H](CC(=O)O)NC(=O)[C@H](CO)NC(=O)[C@@H](NC(=O)[C@H](Cc1ccccc1)NC(=O)[C@@H](NC(=O)CNC(=O)[C@H](CCC(=O)O)NC(=O)C(C)(C)NC(=O)[C@@H](N)Cc1ccc(O)cc1)[C@@H](C)O)[C@@H](C)O)[C@@H](C)CC)[C@@H](C)CC)C(C)C)C(=O)N[C@@H](C)C(=O)NCC(=O)NCC(=O)N1CCC[C@H]1C(=O)N[C@@H](CO)C(=O)N[C@@H](CO)C(=O)NCC(=O)N[C@@H](C)C(=O)N1CCC[C@H]1C(=O)N1CCC[C@H]1C(=O)N1CCC[C@H]1C(=O)N[C@@H](CO)C(N)=O [Non-acylated tirzepatide] | 14.8 nM | 57.1 ± 1.97% | 59.8 ± 1.01% | – | – | – | – | – | – | – | – | – | – | – | – | –
2 | CC(C)C[C@H](NC(=O)[C@H](CC(C)C)NC(=O)[C@H](Cc1c[nH]c2ccccc12)NC(=O)[C@H](CCC(N)=O)NC(=O)[C@@H](NC(=O)[C@H](Cc1ccccc1)NC(=O)[C@H](CC(=O)O)NC(=O)[C@H](CCC(N)=O)NC(=O)[C@H](C)NC(=O)[C@H](C)NC(=O)[C@H](CCCNC(=N)N)NC(=O)[C@H](CCC(=O)O)NC(=O)[C@H](CC(=O)O)NC(=O)[C@H](CC(C)C)NC(=O)[C@H](Cc1ccc(O)cc1)NC(=O)[C@H](CCCCN)NC(=O)[C@H](CO)NC(=O)[C@H](CCCCN)NC(=O)[C@H](CC(=O)O)NC(=O)[C@H](CO)NC(=O)[C@@H](NC(=O)[C@H](Cc1ccccc1)NC(=O)[C@@H](NC(=O)CNC(=O)[C@H](CCC(N)=O)NC(=O)C(C)(C)NC(=O)[C@@H](N)Cc1c[nH]cn1)[C@@H](C)O)[C@@H](C)O)C(C)C)C(=O)N[C@@H](CC(=O)O)C(=O)NCC(=O)NCC(=O)N1CCC[C@H]1C(=O)N[C@@H](CO)C(=O)N[C@@H](CO)C(=O)NCC(=O)N[C@@H](C)C(=O)N1CCC[C@H]1C(=O)N1CCC[C@H]1C(=O)N1CCC[C@H]1C(=O)N[C@@H](CO)C(N)=O [Non-lipidated peptide 20] (H-H[Aib]QGTFTSDKSKYLDERAAQDFVQWLLDGGPSSGAPPPS-NH2; N-terminus and C-terminus assumed) | – | – | – | 1.95 nM | 759 fold | −1,514 fold | 105 ± 2.16% | 103 ± 1.98% | – | – | – | – | – | – | – | –
3 | CCCCCCCCCCCCCCCC(=O)N[C@@H](CCC(=O)NCCCC[C@H](NC(=O)[C@H](CC(=O)O)NC(=O)[C@H](CO)NC(=O)[C@@H](NC(=O)[C@H](Cc1ccccc1)NC(=O)[C@@H](NC(=O)CNC(=O)[C@H](CCC(N)=O)NC(=O)C(C)(C)NC(=O)[C@@H](N)Cc1c[nH]cn1)[C@@H](C)O)[C@@H](C)O)C(=O)N[C@@H](CO)C(=O)N[C@@H](CCCCN)C(=O)N[C@@H](Cc1ccc(O)cc1)C(=O)N[C@@H](CC(C)C)C(=O)N[C@@H](CC(=O)O)C(=O)N[C@@H](CCC(=O)O)C(=O)N[C@@H](CCCNC(=N)N)C(=O)N[C@@H](C)C(=O)N[C@@H](C)C(=O)N[C@@H](CCC(N)=O)C(=O)N[C@@H](CC(=O)O)C(=O)N[C@@H](Cc1ccccc1)C(=O)N[C@H](C(=O)N[C@@H](CCC(N)=O)C(=O)N[C@@H](Cc1c[nH]c2ccccc12)C(=O)N[C@@H](CC(C)C)C(=O)N[C@@H](CC(C)C)C(=O)N[C@@H](CC(=O)O)C(=O)NCC(=O)NCC(=O)N1CCC[C@H]1C(=O)N[C@@H](CO)C(=O)N[C@@H](CO)C(=O)NCC(=O)N[C@@H](C)C(=O)N1CCC[C@H]1C(=O)N1CCC[C@H]1C(=O)N1CCC[C@H]1C(=O)N[C@@H](CO)C(N)=O)C(C)C)C(=O)O [Peptide 20] | – | – | – | – | – | – | 101 ± 1.36% | 100.2 ± 0.86% | 0.00562 nM | 0.00263 nM | 99.3 ± 1.73% | 101 ± 1.68% | 8.73 ± 2.65 % WT | 15.5 nM | 10.25 ± 1.71 % WT | 17 nM
